# Test results: US8012967B2, “Minor groove binders” (University of Strathclyde, priority 2006, dated 2011)
# Tested on: S. aureus LS-1
# Test: S. aureus infection model in mice, minimal effective dose
# Format: in vivo
# Parameters: Development of swollen joints following infection: unit not given here
# Conditions: for Development of swollen joints following infection: count n/N, mice
# Experimental: In relation to the methods described in J. Med. Microbiol. 46, 208-213 (1997), compounds may be evaluated in vivo using a model S. Aureus strain LS-1 which, when injected intravenously into mice, consistently causes transient bacteraemia followed by joint localization in 3-4 days. Normal control mice show inflammation of 50-60% of their joints within 3-4 days. The severity of joint sepsis was measured using calipers to determine the diameter of the affected joints. In general, five groups of mice normally having a mean weight of between 18-28 g (5 mice per group) are used for each compound tested, wherein each group is infected with S. Aureus and then provided with a certain dose of the compound to be tested (with one group acting a control).
# Determination of minimal effective dose of title compound of Example 2 in S. aureus infection model.
# Mice were infected with S. aureus LS-1 (50 million cfu by iv injection) and treated with graded doses of the compound of Example 2 (iv injection within 30 minutes). Each group contained 5 mice and comprised the following.
# Group 1: S. aureus LS-1 only
# Group 2: S. aureus LS-1 plus 60 mg/kg of the compound of Example 2
# Group 3: S. aureus LS-1 plus 40 mg/kg of the compound of Example 2
# Group 4: S. aureus LS-1 plus 20 mg/kg of the compound of Example 2
# Group 5: S. aureus LS-1 plus 10 mg/kg of the compound of Example 2
# Mice were assessed daily for weight loss, development of swollen joints and morbidity/mortality.
# [1] = Group 2, 60 mg/kg iv, day 2 post infection
# [2] = Group 2, 60 mg/kg iv, day 3 post infection
# [3] = Group 2, 60 mg/kg iv, day 4 post infection
# [4] = Group 2, 60 mg/kg iv, day 5 post infection
# [5] = Group 2, 60 mg/kg iv, day 6 post infection
# [6] = Group 2, 60 mg/kg iv, day 7 post infection
# [7] = Group 3, 40 mg/kg iv, day 2 post infection
# [8] = Group 3, 40 mg/kg iv, day 3 post infection
# [9] = Group 3, 40 mg/kg iv, day 4 post infection
# [10] = Group 3, 40 mg/kg iv, day 5 post infection
# [11] = Group 3, 40 mg/kg iv, day 6 post infection
# [12] = Group 3, 40 mg/kg iv, day 7 post infection
# [13] = Group 4, 20 mg/kg iv, day 2 post infection
# [14] = Group 4, 20 mg/kg iv, day 3 post infection
# [15] = Group 4, 20 mg/kg iv, day 4 post infection
# [16] = Group 4, 20 mg/kg iv, day 5 post infection
# [17] = Group 4, 20 mg/kg iv, day 6 post infection
# [18] = Group 4, 20 mg/kg iv, day 7 post infection
# [19] = Group 5, 10 mg/kg iv, day 2 post infection
# [20] = Group 5, 10 mg/kg iv, day 3 post infection
# [21] = Group 5, 10 mg/kg iv, day 4 post infection
smiles,measurement,setting,value
"Cn1cc(NC(=O)c2cc(NC(=O)c3ccc(/C=C/c4cnc5ccccc5c4)cc3)cn2C)cc1C(=O)NCCN1CCOCC1 [Example 2, 1-Methyl-4-({[1-methyl-4-({4-[(E)-2-(3-quinolinyl)ethenyl]benzoyl}amino)-1H-pyrrol-2-yl]carbonyl}amino)-N-[2-(4-morpholinyl)ethyl]-1H-pyrrole-2-carboxamide]",Weight loss of mice after infection: Mean mouse weight (g) after,"Group 2, 60 mg/kg iv, Day 2",27.1 g
same,Weight loss of mice after infection: Mean mouse weight (g) after,"Group 2, 60 mg/kg iv, Day 5",26.3 g
same,Weight loss of mice after infection: Mean mouse weight (g) after,"Group 2, 60 mg/kg iv, Day 7",26.1 g
same,Mortality rate of mice following infection,[1],0/5
same,Mortality rate of mice following infection,[2],0/5
same,Mortality rate of mice following infection,[3],1/5
same,Mortality rate of mice following infection,[4],1/5
same,Mortality rate of mice following infection,[5],1/5
same,Mortality rate of mice following infection,[6],1/5
same,Weight loss of mice after infection: Mean mouse weight (g) after,"Group 3, 40 mg/kg iv, Day 2",27.0 g
same,Weight loss of mice after infection: Mean mouse weight (g) after,"Group 3, 40 mg/kg iv, Day 5",26.4 g
same,Weight loss of mice after infection: Mean mouse weight (g) after,"Group 3, 40 mg/kg iv, Day 7",26.0 g
same,Mortality rate of mice following infection,[7],0/5
same,Mortality rate of mice following infection,[8],0/5
same,Mortality rate of mice following infection,[9],0/5
same,Mortality rate of mice following infection,[10],0/5
same,Mortality rate of mice following infection,[11],0/5
same,Mortality rate of mice following infection,[12],0/5
same,Weight loss of mice after infection: Mean mouse weight (g) after,"Group 4, 20 mg/kg iv, Day 2",27.6 g
same,Weight loss of mice after infection: Mean mouse weight (g) after,"Group 4, 20 mg/kg iv, Day 5",25.4 g
same,Weight loss of mice after infection: Mean mouse weight (g) after,"Group 4, 20 mg/kg iv, Day 7",25.1 g
same,Mortality rate of mice following infection,[13],0/5
same,Mortality rate of mice following infection,[14],0/5
same,Mortality rate of mice following infection,[15],0/5
same,Mortality rate of mice following infection,[16],1/5
same,Mortality rate of mice following infection,[17],2/5
same,Mortality rate of mice following infection,[18],3/5
same,Weight loss of mice after infection: Mean mouse weight (g) after,"Group 5, 10 mg/kg iv, Day 2",26.9 g
same,Weight loss of mice after infection: Mean mouse weight (g) after,"Group 5, 10 mg/kg iv, Day 5",23.0 g
same,Weight loss of mice after infection: Mean mouse weight (g) after,"Group 5, 10 mg/kg iv, Day 7",22.6 g
same,Mortality rate of mice following infection,[19],0/5
same,Mortality rate of mice following infection,[20],0/5
same,Mortality rate of mice following infection,[21],0/5
same,Mortality rate of mice following infection,"Group 5, 10 mg/kg iv, day 5 post infection",0/5
same,Mortality rate of mice following infection,"Group 5, 10 mg/kg iv, day 6 post infection",1/5
same,Mortality rate of mice following infection,"Group 5, 10 mg/kg iv, day 7 post infection",2/5
same,Development of swollen joints following infection,[1],0/20
same,Development of swollen joints following infection,[2],0/20
same,Development of swollen joints following infection,[3],0/16
same,Development of swollen joints following infection,[4],0/16
same,Development of swollen joints following infection,[5],0/16
same,Development of swollen joints following infection,[6],0/16
same,Development of swollen joints following infection,[7],0/20
same,Development of swollen joints following infection,[8],0/20
same,Development of swollen joints following infection,[9],2/20
same,Development of swollen joints following infection,[10],3/20
same,Development of swollen joints following infection,[11],3/20
same,Development of swollen joints following infection,[12],3/20
same,Development of swollen joints following infection,[13],1/20
same,Development of swollen joints following infection,[14],1/20
same,Development of swollen joints following infection,[15],2/20
same,Development of swollen joints following infection,[16],1/16
same,Development of swollen joints following infection,[17],6/20
same,Development of swollen joints following infection,[18],4/12
same,Development of swollen joints following infection,[19],1/20
same,Development of swollen joints following infection,[20],1/20
same,Development of swollen joints following infection,[21],2/20
